Where two headings read alike, the source gives them in different places.
System: SMN2-luciferase reporter
Assay: SMN2-luciferase reporter assay (clonal HEK-293 SMN2-luc cells)
Assay type: cell-based, human
Details: for Emax: read-out: Max % Activity; for Max. fold increase: cell-based reporter response to known SMN2 modulating compounds
Method: The reporter cell lines were plated at 50,000 cells per well in 96-well plates and incubated overnight. Compounds were added to each well and incubated at 37° C. overnight. The final DMSO concentration was 0.1%. Luciferase activity was assayed using either STEADYGLO (PROMEGA E2510) or DUALGLO (PROMEGA E2920) luciferase using the WALLAC ENVISION multilabel reader. For detailed assay conditions see Table 2A. All data points were transformed from CPS to percent increase over basal expression in the treated control wells (DMSO or H2O as appropriate).
Plates were sealed with porous paper tape and incubated for 24 hours. […] For comparison, data points were transformed from CPS to percent activation over basal expression in the DMSO treated control wells.
For comparison, all data points are expressed as percent increase over basal luciferase expression in the control cells.

[1] = Homo sapiens, HEK293, reporter assay, Table 6, read-out: Ec50
[2] = Homo sapiens, HEK293, reporter assay, Table 6

SMILES	Active (reporter assay, Table 6)	other results
CC(C)(C)c1cc(C(=O)Nc2ccc(F)c(Cl)c2)no1 [LDN-211858]	No	–
CC(C)(C)c1cc(NS(=O)(=O)c2ccc3ccccc3c2)no1 [LDN-211859]	No	–
CC(C)c1cc(NC(=O)c2ccc(F)c(Cl)c2)on1 [LDN-211860]	Yes	EC50 [1]: 2.5 µM; Emax [2]: 125%
CC(C)(C)c1cc(NC(=O)c2ccc(F)c(Cl)c2)on1 [LDN-211861]	Yes	EC50 [1]: 3.7 µM; Emax [2]: 100%
CC(C)C1CC(C(=O)Nc2ccc(F)c(Cl)c2)=NO1 (stereo not drawn) [LDN-211862]	Nonspecific	–
CC(C)(C)c1cc(NC(=O)c2cnc3ccccc3c2)no1 [LDN-211906]	Yes	EC50 [1]: 0.8 µM; Emax [2]: 250%
CC(C)(C)c1cc(NC(=O)c2cnc3ccccc3n2)no1 [LDN-211907]	No/Weak	–
CC(C)(C)c1cc(NC(=O)c2ccc3ccccc3n2)no1 [LDN-211908]	No/Weak	–
CC(C)(C)c1cc(NC(=O)c2cc3ccccc3o2)no1 [LDN-211909]	No/Weak	–
Cn1c(C(=O)Nc2cc(C(C)(C)C)on2)cc2ccccc21 [LDN-211910]	Yes	EC50 [1]: 0.7 µM; Emax [2]: 100%
CC(C)(C)c1cc(NC(=O)c2cc3ccccc3[nH]2)no1 [LDN-211911]	Yes	EC50 [1]: 0.4 µM; Emax [2]: 175%
Cc1ccc(C(=O)Nc2cc(C(C)(C)C)on2)cc1C [LDN-211912]	Yes	EC50 [1]: 1.1 µM; Emax [2]: 150%
CC(C)(C)c1nnc(NC(=O)c2ccc(F)c(Cl)c2)s1 [LDN-211981]	Yes	EC50 [1]: 5.9 µM; Emax [2]: 100%
O=C(Nc1nnc(-c2ccccc2)s1)c1ccc(F)c(Cl)c1 [LDN-211982]	No	–
O=C(Nc1nc(-c2ccccc2)cs1)c1ccc(F)c(Cl)c1 [LDN-211983]	No	–
Cc1csc(NC(=O)c2ccc(F)c(Cl)c2)n1 [LDN-211984]	Yes	EC50 [1]: 2.1 µM; Emax [2]: 200%
Cc1cnc(NC(=O)c2ccc(F)c(Cl)c2)s1 [LDN-211985]	Yes	EC50 [1]: 0.8 µM; Emax [2]: 150%
CC(C)c1nc(C(=O)Nc2ccc(F)c(Cl)c2)cs1 [LDN-211986]	Yes	EC50 [1]: 1.5 µM; Emax [2]: 100%
CC(C)(C)c1coc(NC(=O)c2ccc(F)c(Cl)c2)n1 [LDN-211992]	Yes	EC50 [1]: 0.15 µM; Emax [2]: 100%
O=C(Nc1nc(-c2ccccc2)co1)c1ccc(F)c(Cl)c1 [LDN-212011]	No	–
CC(C)(C)c1c[nH]c(NC(=O)c2ccc(F)c(Cl)c2)n1 [LDN-212012]	No	–

SMILES	Active (reporter assay, Table 6)	other results
O=C(Nc1nc(C2CCC2)cs1)c1ccc(F)c(Cl)c1 [LDN-212013]	Yes	EC50 [1]: 0.5 µM; Emax [2]: 100%
CC(C)c1nc(C(=O)Nc2ccc(F)c(Cl)c2)co1 [LDN-212015]	Yes	EC50 [1]: 1.7 µM; Emax [2]: 100%
CC(C)(C)c1cc(=O)[nH]c(NC(=O)c2ccc(F)c(Cl)c2)n1 [LDN-212026]	No	–
CC(C)(O)c1cnc(NC(=O)c2ccc(F)c(Cl)c2)s1 [LDN-212255]	Yes	EC50 [1]: 0.4 µM; Emax [2]: 117%
O=C(Nc1cc(C2(O)CCC2)ccn1)c1ccc(F)c(Cl)c1 [LDN-212256]	Yes	EC50 [1]: 0.4 µM; Emax [2]: 114%
COc1cc2c(c(OC)c1OC)C(c1cc(Br)ccc1F)CC(=O)N2C (stereo not drawn) [LDN-212263]	No	–
COc1cc2c(c(OC)c1)C(c1cc(Br)ccc1F)CC(=O)N2 (stereo not drawn) [LDN-212264]	No	–
COc1cc2[nH]c(=O)cc(-c3cc(Br)ccc3F)c2c(OC)c1OC [LDN-212265]	No	–
COc1cc2c(c(OC)c1OC)C(c1ccc(Cl)c(Cl)c1)CC(=O)N2 (stereo not drawn) [LDN-212266]	No/Weak	–
COc1cc2c(c(OC)c1OC)C(c1cccc(-c3ccccc3)c1)CC(=O)N2 (stereo not drawn) [LDN-212267]	No	–
C=C1CC(c2cccc3ccccc23)c2c(cc(OC)c(OC)c2OC)N1 (stereo not drawn) [LDN-212350]	No/Weak	–
O=C1CC(c2cc(Br)ccc2F)c2c(ccc3ccccc23)N1 (stereo not drawn) [LDN-212352]	No	–
COc1cc2c(c(OC)c1OC)C(c1cc(F)ccc1F)CC(=O)N2 (stereo not drawn) [LDN-212353]	No/Weak	–
COC1=CC2NC(=O)CC(c3cc([N+](=O)[O-])ccc3F)C2C(OC)=C1OC (stereo not drawn) [LDN-212354]	No/Weak	–
COc1cc2c(c(OC)c1OC)C(c1cccc3ccccc13)CC(=O)N2 (stereo not drawn) [LDN-212355]	No/Weak	–
COc1cc2c(c(OC)c1OC)C(c1cccc3ccccc13)CC(=O)N2 (stereo not drawn) [LDN-212356]	Yes	EC50 [1]: 43 µM; Emax [2]: 150%
COc1cc2c(c(OC)c1OC)C(c1ccc3ccccc3c1)CC(=O)N2 (stereo not drawn) [LDN-212357]	No	–
COC1=CC2NC(=O)CC(c3cc(C(N)O)ccc3F)C2C(OC)=C1OC (stereo not drawn) [LDN-212358]	No	–
COC1=C2C(=CC(OC)C1OC)NC(=O)CC2c1cc(NC(=O)c2ccccc2)ccc1F (stereo not drawn) [LDN-212359]	No	–
COC1=CC2NC(=O)CC(c3cc(NC(C)=O)ccc3F)C2C(OC)=C1OC (stereo not drawn) [LDN-212360]	No	–
COc1cc2c(c(OC)c1OC)C(c1cc(C=N)ccc1F)CC(=O)N2 (stereo not drawn) [LDN-212361]	No	–

SMILES	Active (reporter assay, Table 6)	other results
CCOC(=O)C1C(=O)Nc2cc(OC)c(OC)c(OC)c2C1c1cc(Cl)ccc1F (stereo not drawn) [LDN-212388]	No	–
COc1cc2c(c(OC)c1OC)C(c1coc3ccccc13)CC(=O)N2 (stereo not drawn) [LDN-212389]	No/Weak	–
COc1cc2c(c(OC)c1OC)C(c1cccnc1Cl)CC(=O)N2 (stereo not drawn) [LDN-212390]	No	–
COc1cc2c(c(OC)c1OC)C(c1ccc(Cl)cn1)CC(=O)N2 (stereo not drawn) [LDN-212392]	No	–
COc1cc2c(c(OC)c1OC)C(c1ccnc(Cl)c1)CC(=O)N2 (stereo not drawn) [LDN-212393]	No/Weak	–
CC(C)(O)c1sc(NC(=O)C2CCC(F)C(Cl)C2)nc1C(F)(F)F (stereo not drawn) [LDN-213766]	No	–
COc1cc2c(c(OC)c1OC)C(c1cc(Cl)ccc1F)NC(=O)N2 (stereo not drawn) [LDN-213767]	Yes	Max % Activity (reporter assay, Table 6): 125%; EC50 (reporter assay, Table 6, read-out: Ec50): 8.4 µM
COc1cc2c(c(OC)c1OC)C(c1cc(Cl)ccc1F)OC(=O)N2 (stereo not drawn) [LDN-213768]	Yes	EC50 [1]: 5.9 µM; Emax [2]: 150%
COc1cc2c(c(OC)c1OC)C(c1cc(Cl)ccc1F)CC(=O)N2 (stereo not drawn) [LDN-213769]	No	–
COc1cc2c(c(OC)c1OCCN1CCOCC1)C(c1cc(Cl)ccc1F)CC(=O)N2 (stereo not drawn) [LDN-213770]	No	–
COc1cc2c(c(OC)c1OCCO)C(c1cc(Cl)ccc1F)CC(=O)N2 (stereo not drawn) [LDN-213771]	No	–
COCCOc1c(OC)cc2c(c1OC)C(c1cc(Cl)ccc1F)CC(=O)N2 (stereo not drawn) [LDN-213772]	No	–
COc1cc2c(c(OC)c1OC)C(c1cc(Cl)ccc1F)C(C)C(=O)N2 (stereo not drawn) [LDN-213773]	No	–
COc1cc2c(c(OC)c1OC)C(c1cc(Cl)ccc1F)C(C)C(=O)N2 (stereo not drawn) [LDN-214085]	Yes	EC50 [1]: 6 µM; Emax [2]: 180%
CC(C)(C)c1cc(NC(=O)c2nc3ccccc3[nH]2)no1 [LDN-214095]	No	–
CCCC1C(=O)Nc2cc(OC)c(OC)c(OC)c2C1c1cc(Cl)ccc1F (stereo not drawn) [LDN-214096]	No	–
COc1cc2c(c(OC)c1OC)C(c1cc(Cl)ccc1F)N(CCN(C)C)C(=O)N2 (stereo not drawn) [LDN-214097]	No	–
NC[C@H]1O[C@H](O[C@H]2[C@H](O)[C@@H](O[C@H]3O[C@H](CO)[C@@H](O)[C@H](N)[C@H]3O)[C@H](N)C[C@@H]2N)[C@H](N)C[C@@H]1O [Tobramycin, tobramycin, reference compound]	–	response of luciferase activity in the reporter cell lines (SMN1-luc and SMN2-luc cell lines, words): no response; Max. fold increase: inactive ^a; EC50 (cell-based reporter, result in words): inactive ^a
CC(/C=C/C(=O)NO)=C\[C@@H](C)C(=O)c1ccc(N(C)C)cc1 [Trichostatin A, trichostatin A, reference compound]	–	Max. fold increase: 15 fold; EC50 (cell-based reporter, known SMN2 modulating compounds, read-out: EC50): 0.23 µM

From US9212209B2, “Screening methods for spinal muscular atrophy” (Indiana University Research and Technology Corporation, priority 2012, dated 2015)
